Laboratory results as given in patent publication US6900315B2, “2-amino-9H-purin-9-yl compounds and methods for inhibiting/treating HIV infections and AIDS related symptoms” (Yale University, priority 2001, dated 2005).
Where two headings read alike, the source gives them in different places.

Legend:
HIV IIIB = assay: Anti-HIV activity in MT-2 cells infected with HIV IIIB, MTT dye cell viability; assay type: cell-based; conditions: read-out: EC50 (concentration necessary to save 50% of the cells)
Procedure: To assess the ability of the compounds according to the present invention to inhibit viral infection relative to other compounds experiments were performed in the MT-2 cell line, as previously described by Larder, et al., Antimicrobial Agents & Chemotherapy, vol. 34, 436 (1990). […] Cells were infected at an initial multiplicity of infection (MOI) of 0.1 and grown for 5 days. Cell viability was assessed by the use of dye metabolized by viable cells.

MT-2 = assay: Toxicity, dye based cell growth assay in absence of HIV, MT-2; conditions: read-out: IC50 (inhibited 50% of the cell growth)
Procedure: (§1) To determine the toxicity of the compounds to various cell lines (Table 1, below), a similar dye based assay is performed in the absence of HIV. The toxicity of the compounds alone therefore was determined.

CEM = assay: Toxicity, dye based cell growth assay, CEM; conditions: read-out: IC50 (inhibited 50% of the cell growth)
Procedure: as §1

HEP-G2 = assay: Toxicity, dye based cell growth assay, HEP-G2; conditions: read-out: IC50 (inhibited 50% of the cell growth)
Procedure: as §1

KB = assay: Toxicity, dye based cell growth assay, KB
Procedure: as §1

HeLa = assay: Toxicity, dye based cell growth assay, HeLa
Procedure: as §1

[1] = test system: mitochondrial DNA in CEM cells; assay: Mitochondrial toxicity: ratio of mitochondrial DNA to Alu repeat in CEM cells; assay type: cell-based; conditions: 8 days
Source text: After 8 days of growth the cells were lysed and probed for the amount of mitochondrial DNA and normalized for differences in the amount of total DNA by probing for the Alu repeat. By comparing the amount of mitochondrial DNA to the amount of Alu repeat the % decrease in mitochondrial DNA in the presence of various concentrations of drug can be obtained. All experiments were done in triplicate. Techniques which are presented here have been previously described in Chen and Cheng, J. Biol. Chem., vol. 264, 11934-7 (1989).

HIV [2] = assay: Anti-HIV drug combination (synergy, isobologram of FEC50) in cell culture; assay type: cell-based
Procedure: Points on this line represent the compounds working independently.
In an attempt to understand how D4G prodrugs of the present invention would interact with other clinically approved compounds, experiments were performed with drug combinations. […] Points on the line represent two compounds working independently. […] See, Bridges, et al., Biochem. Pharmacol., 51, 731 (1996) and Dutschman, et al., Antimicro. Agents Chemother. 42, 1799 (1998).

HIV [3] = conditions: pairs: D4T and AZT, 3TC and ddC, FD4C and 3TC, abacavir and cyclo D4G; Bridges et al., Dutschman et al.; cited from earlier work
[4] = biological target: T1, wild type HIV-1 reverse transcriptase (Human immunodeficiency virus type 1 group M subtype B, UniProt P04585); assay: Kinetics of nucleotide incorporation by wild type HIV-1 reverse transcriptase; assay type: biochemical; conditions: RT WT
T1 construct: a mixture of 100 nM HIV-1 reverse transcriptase and 300 nM primer/template
Procedure: Continued research on the guanosine prodrug approach for making D4G a viable anti-HIV agent has yielded a number of new findings. In the present example, enzyme kinetics for the incorporation of the active metabolites of guanosine prodrugs with wild type HIV-1 reverse transcriptase was determined. In this experiment, a mixture of 100 nM HIV-1 reverse transcriptase and 300 nM primer/template in which the correct base incorporation is a guanine nucleotide was rapidly mixed with nucleotide in the presence of 50 mM Tris, 50 mM NaCl and 10 mM MgCl2 for a set amount of time and then the reaction was stopped by the addition 300 mM of EDTA.

[5] = biological target: T1, wild type HIV-1 reverse transcriptase; set-up: kpol/Kd: unit not given here; conditions: from Ray and Anderson or Furman et al., cited from earlier work
[6] = biological target: T2, mitochondrial polymerase gamma (Homo sapiens, UniProt P54098); assay: Nucleotide incorporation by mitochondrial polymerase gamma into an elongating DNA strand; assay type: biochemical; conditions: mitochondrial polymerase gamma, incorporation
T2 sequence (P54098 1-1239): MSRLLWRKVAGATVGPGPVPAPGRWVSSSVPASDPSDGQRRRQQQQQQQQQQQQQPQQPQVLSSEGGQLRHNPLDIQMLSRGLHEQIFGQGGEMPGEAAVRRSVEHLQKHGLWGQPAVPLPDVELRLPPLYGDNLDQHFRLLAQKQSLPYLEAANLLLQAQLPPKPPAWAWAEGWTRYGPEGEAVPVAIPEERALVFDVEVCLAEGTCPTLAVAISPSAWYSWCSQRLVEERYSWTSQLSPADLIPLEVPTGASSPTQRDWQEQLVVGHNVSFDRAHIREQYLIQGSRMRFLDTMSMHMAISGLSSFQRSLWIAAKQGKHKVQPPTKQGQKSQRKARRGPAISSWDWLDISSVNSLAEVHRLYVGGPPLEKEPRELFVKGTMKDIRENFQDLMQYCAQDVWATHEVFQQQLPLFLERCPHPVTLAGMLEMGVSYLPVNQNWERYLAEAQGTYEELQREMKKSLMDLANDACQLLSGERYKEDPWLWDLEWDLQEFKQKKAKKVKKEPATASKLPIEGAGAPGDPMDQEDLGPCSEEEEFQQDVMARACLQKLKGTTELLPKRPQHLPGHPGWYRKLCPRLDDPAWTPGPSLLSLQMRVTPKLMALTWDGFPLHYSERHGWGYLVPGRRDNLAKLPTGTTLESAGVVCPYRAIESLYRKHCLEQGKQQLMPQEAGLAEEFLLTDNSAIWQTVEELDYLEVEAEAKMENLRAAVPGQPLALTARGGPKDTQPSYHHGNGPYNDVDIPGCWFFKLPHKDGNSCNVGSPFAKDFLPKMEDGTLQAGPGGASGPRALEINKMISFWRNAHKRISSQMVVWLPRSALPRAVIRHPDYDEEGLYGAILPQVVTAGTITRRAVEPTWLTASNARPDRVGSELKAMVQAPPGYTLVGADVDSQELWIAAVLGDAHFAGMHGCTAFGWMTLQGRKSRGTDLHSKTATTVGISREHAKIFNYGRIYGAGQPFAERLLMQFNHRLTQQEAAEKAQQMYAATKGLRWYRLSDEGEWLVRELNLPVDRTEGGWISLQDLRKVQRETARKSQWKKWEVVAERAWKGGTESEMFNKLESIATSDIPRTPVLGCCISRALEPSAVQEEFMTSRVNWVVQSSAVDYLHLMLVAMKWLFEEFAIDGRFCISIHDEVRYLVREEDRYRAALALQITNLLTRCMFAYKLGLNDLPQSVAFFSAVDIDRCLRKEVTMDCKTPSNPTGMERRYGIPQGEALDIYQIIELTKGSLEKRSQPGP

[7] = Human immunodeficiency virus 1, IIIB, MT2, 120 h
[8] = Homo sapiens, MT2, 120 h, MT-2, HTLV infected T cell line, 5 days
[9] = Homo sapiens, CCRF-CEM, 120 h, CEM, T cell line, 5 days
[10] = Homo sapiens, HepG2, 120 h, HEP-G2, hepatoma cell line, 5 days
[11] = Homo sapiens, 120 h, read-out: IC50 (inhibited 50% of the cell growth), oral carcinoma, 5 days
[12] = Homo sapiens, 120 h, read-out: IC50 (inhibited 50% of the cell growth), cervical cancer cell line, 5 days
[13] = Human immunodeficiency virus 1, MT2, 120 h, MT-2 cells, HIV IIIB, MOI 0.1, 5 days, MTT, NA = No Activity at concentrations up to 100 uM, EC50 not achievable due to toxicity
[14] = Table 4, primer/template DNA/DNA
[15] = Table 4, primer/template DNA/RNA
[16] = Homo sapiens, 120 h, read-out: IC50 (inhibited 50% of the cell growth)

Nc1nc(NC2CC2)c2ncn([C@H]3C=C[C@@H](CO)C3)c2n1 [Abacavir]
EC50 (HIV IIIB; [7]): 2 ± 0.4 µM
IC50 (MT-2; [8]): 60 ± 13 µM
IC50 (CEM; [9]): 200 ± 50 µM
IC50 (HEP-G2; [10]): 180 ± 12 µM
IC50 (KB; [11]): 200 ± 21 µM
IC50 (HeLa; [12]): 500 ± 33 µM
% Control (mtDNA/Alu) ([1]; human, 1 μM): 110%
Ration of mtDNA/Alu ([1]; human, 1 μM): 1.18 ± 0.03
% Control (mtDNA/Alu) ([1]; human, 10 μM): 119%
Ration of mtDNA/Alu ([1]; human, 10 μM): 1.27 ± 0.06
% Control (mtDNA/Alu) ([1]; human, 200 μM): 127%
Ration of mtDNA/Alu ([1]; human, 200 μM): 1.36 ± 0.06
anti-HIV interaction in combination with 3TC (HIV [2]; FIG. 3 and FIG. 4): merely additive
anti-HIV interaction of two analogs of the same base (HIV [3]): not synergistic

Nc1ccn([C@H]2CC[C@@H](CO)O2)c(=O)n1 [DdC, 2′,3′ dideoxycytodine]
EC50 (HIV IIIB; [13]): 0.3 ± 0.05 µM
IC50 (MT-2; [8]): 2 ± 0.3 µM
IC50 (CEM; [9]): 3 ± 1 µM
IC50 (HEP-G2; [10]): 25 ± 2 µM
IC50 (KB; [11]): 100 ± 11 µM
IC50 (HeLa; [12]): > 100 µM
% Control (mtDNA/Alu) ([1]; human, 0.01 μM): 87%
Ration of mtDNA/Alu ([1]; human, 0.01 μM): 0.93 ± 0.06
% Control (mtDNA/Alu) ([1]; human, 0.1 μM): 65%
Ration of mtDNA/Alu ([1]; human, 0.1 μM): 0.70 ± 0.04
% Control (mtDNA/Alu) ([1]; human, 1 μM): 3%
Ration of mtDNA/Alu ([1]; human, 1 μM): 0.03 ± 0.01

Nc1nc2c(ncn2C2C=CC(COP(=O)(O)OP(=O)(O)OP(=O)(O)O)C2)c(=O)[nH]1 (single isomer, unassigned; (-)) [CBVTP, (−) carbovir-TP]
Efficiency [4, 14]: 0.05 ± 0.01 s^−1μM^−1
Kd [4, 14]: 21 ± 3 µM
Selectivity = efficiency dGTP/efficiency analog [4, 14]: 30
kpol [4, 14]: 1.0 ± 0.06 s⁻¹
Efficiency [4, 15]: 0.42 ± 0.06 s^−1μM^−1
Kd [4, 15]: 3.7 ± 0.5 µM
Selectivity = efficiency dGTP/efficiency analog [4, 15]: 10
kpol [4, 15]: 1.5 ± 0.05 s⁻¹
Selectivity = (kpol/Kd)dGTP/(kpol/Kd)analog ([5]; Table 3, substrate DNA/DNA): 30
kpol ([5]; Table 3, substrate DNA/DNA): 1.0 ± 0.06 s⁻¹
kpol/Kd ([5]; Table 3, substrate DNA/DNA): 0.05 ± 0.01
Selectivity = (kpol/Kd)dGTP/(kpol/Kd)analog ([5]; Table 3, substrate DNA/RNA): 10
kpol ([5]; Table 3, substrate DNA/RNA): 1.5 ± 0.05 s⁻¹
kpol/Kd ([5]; Table 3, substrate DNA/RNA): 0.42 ± 0.06

Cc1cn([C@H]2C=C[C@@H](CO)O2)c(=O)[nH]c1=O [d4T, 2′,3′-didehydro-2′,3′-dideoxythymidine]
EC50 (HIV IIIB; [7]): 3 ± 0.7 µM
IC50 (MT-2; Homo sapiens, MT2, 120 h): > 100 µM
IC50 (CEM; Homo sapiens, CCRF-CEM, 120 h): 190 ± 30 µM
IC50 (HEP-G2; Homo sapiens, HepG2, 120 h): 390 ± 26 µM
IC50 (KB; [16]): 450 ± 47 µM
IC50 (HeLa; [16]): 480 ± 31 µM
% Control (mtDNA/Alu) ([1]; compound 1 μM, CEM cells): 110%
Ration of mtDNA/Alu ([1]; compound 1 μM, CEM cells): 1.18 ± 0.03
% Control (mtDNA/Alu) ([1]; compound 10 μM, CEM cells): 94%
Ration of mtDNA/Alu ([1]; compound 10 μM, CEM cells): 1.00 ± 0.02
% Control (mtDNA/Alu) ([1]; compound 200 μM, CEM cells): 21%
Ration of mtDNA/Alu ([1]; compound 200 μM, CEM cells): 0.22 ± 0.03
anti-HIV interaction in combination with AZT (HIV [2]; FIG. 4, D4T with AZT data not shown): only additive
anti-HIV interaction of two analogs of the same base (HIV [3]): not synergistic

Nc1nc(=O)n([C@@H]2C=C[C@H](CO)O2)cc1F [FD4C]
anti-HIV interaction of two analogs of the same base (HIV [3]): not synergistic

Cc1cn([C@H]2C[C@H](O)[C@@H](COP(=O)(O)OP(=O)(O)OP(=O)(O)O)O2)c(=O)[nH]c1=O [dTTP]
Kd [6]: 0.6 ± 0.16 µM
kpol [6]: 25 ± 2 s⁻¹
kpol/Kd [6]: 3.9e+07 ± 1.3e+07 M⁻¹ s⁻¹

Nc1nc(N)c2ncn([C@H]3CO[C@@H](CO)O3)c2n1 [DAPD]
EC50 (HIV IIIB; MT-2 cells, HIV IIIB, MOI 0.1, 5 days, MTT, NA = No Activity at concentrations up to 100 uM, EC50 not achievable due to toxicity): 15 ± 4 µM
IC50 (MT-2; MT-2, HTLV infected T cell line, 5 days): > 100 µM
IC50 (CEM; CEM, T cell line, 5 days): > 500 µM
IC50 (HEP-G2; HEP-G2, hepatoma cell line, 5 days): 500 ± 33 µM
IC50 (KB; read-out: IC50 (inhibited 50% of the cell growth), oral carcinoma, 5 days): > 500 µM
IC50 (HeLa; read-out: IC50 (inhibited 50% of the cell growth), cervical cancer cell line, 5 days): 500 ± 33 µM

Nc1nc2c(ncn2[C@H]2CO[C@@H](COP(=O)(O)OP(=O)(O)OP(=O)(O)O)O2)c(=O)[nH]1 [DXGTP]
Kd ([5]; Table 3, substrate DNA/DNA): 2.5 ± 0.2 µM
Selectivity = (kpol/Kd)dGTP/(kpol/Kd)analog ([5]; Table 3, substrate DNA/DNA): 3
kpol ([5]; Table 3, substrate DNA/DNA): 1.46 ± 0.03 s⁻¹
kpol/Kd ([5]; Table 3, substrate DNA/DNA): 0.58 ± 0.05
Kd ([5]; Table 3, substrate DNA/RNA): 8.8 ± 1.1 µM
Selectivity = (kpol/Kd)dGTP/(kpol/Kd)analog ([5]; Table 3, substrate DNA/RNA): 20
kpol ([5]; Table 3, substrate DNA/RNA): 1.5 ± 0.1 s⁻¹
kpol/Kd ([5]; Table 3, substrate DNA/RNA): 0.17 ± 0.02

OC[C@@H]1CC[C@H](n2cnc3c(O)ncnc32)O1 [DdI, 2′,3′ dideoxyinosine]
EC50 (HIV IIIB; [13]): 20 ± 6 µM
IC50 (MT-2; [8]): > 100 µM
IC50 (CEM; [9]): > 500 µM
IC50 (HEP-G2; [10]): > 500 µM
IC50 (KB; [11]): > 500 µM
IC50 (HeLa; [12]): 500 ± 33 µM
